In ChEMBL document CHEMBL4431308, “Structure and Configuration of Phosphoeleganin, a Protein Tyrosine Phosphatase 1B Inhibitor from the Mediterranean Ascidian Sidnyum elegans” (J Nat Prod, 2016):
Active and inactive are the calls of the source. No cut-off for these calls is given here.

Columns and labels:
[1] = tested on: HaCaT; assay: Cytotoxicity against human HaCaT cells assessed as reduction in cell viability after 24 hrs by MTT assay; assay type: cell-based
[2] = tested on: DU-145; assay: Cytotoxicity against human DU145 cells assessed as reduction in cell viability after 24 hrs by MTT assay; assay type: cell-based; details: DU-145, 24 h
[3] = tested on: MCF7; assay: Cytotoxicity against human MCF7 cells assessed as reduction in cell viability after 24 hrs by MTT assay; assay type: cell-based; details: MCF7, 24 h
[4] = target: T1, Tyrosine-protein phosphatase non-receptor type 1 (Homo sapiens, UniProt P18031); assay: Inhibition of human recombinant PTP1B catalytic domain expressed in Escherichia coli strain BL21(DE3) using […] as substrate
T1 sequence (P18031 whole entry): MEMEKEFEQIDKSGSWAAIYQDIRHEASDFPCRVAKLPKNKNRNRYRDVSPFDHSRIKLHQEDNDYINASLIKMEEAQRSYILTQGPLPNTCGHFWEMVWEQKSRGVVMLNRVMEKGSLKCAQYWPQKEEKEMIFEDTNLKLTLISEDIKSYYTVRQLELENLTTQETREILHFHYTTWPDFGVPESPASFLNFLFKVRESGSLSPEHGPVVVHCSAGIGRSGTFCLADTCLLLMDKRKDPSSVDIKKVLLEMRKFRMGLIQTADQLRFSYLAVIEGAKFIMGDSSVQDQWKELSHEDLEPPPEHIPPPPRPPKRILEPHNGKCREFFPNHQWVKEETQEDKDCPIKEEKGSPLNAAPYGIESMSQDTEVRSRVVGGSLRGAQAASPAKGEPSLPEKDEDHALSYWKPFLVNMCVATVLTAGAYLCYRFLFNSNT

[5] = target: Dual specificity tyrosine-phosphorylation-regulated kinase 1A (Homo sapiens) (UniProt Q13627); assay: Inhibition of GST-fused human recombinant DYRK1A expressed in Escherichia coli using woodtide as substrate after 30 mins in presence of [gamma-33P]ATP by liquid scintillation counting

SMILES | IC50 [1] | IC50 [2] | IC50 [3] | IC50 [4] | inhibition [5]
CCCCCCCCCCCCCC[C@@H](OP(=O)(O)O)[C@@H](O)CCCO | > 10 µM | > 10 µM | > 10 µM | 24 µM | inactive
O=C(O)CNC(=O)CCCCCC[C@H](O)CCCO | > 10 µM | > 10 µM | > 10 µM | 28 µM | inactive
CCCCCCCCCCCCCC[C@@H](OP(=O)(O)O)[C@@H](O)CC[C@@H](O)[C@@H](O)CC[C@@H](O)CCCCCCC(=O)NCC(=O)O | > 10 µM | > 10 µM | > 10 µM | 11 µM | inactive
